We go through 25 compounds from patent US9777017B2, “Tricyclic fused thiophene derivatives as JAK inhibitors” (Incyte Corporation, priority 2012, dated 2017).

Structures can show the parent of a compound that is named as a salt. Some results are limits rather than exact numbers.

Holding throughout (type): biochemical
Experiment [1] relates to human JAK1. In words: In vitro JAK kinase assay (HTRF, phosphorylation of a biotinylated peptide), JAK1. Details: key to JAK1 IC50 (nM): +indicates an IC50 of ≦100 nM; ++indicates an IC50 of ≦1000 nM; +++indicates an IC50 of ≦2000 nM; ++++indicates an IC50 of >2000 nM; +++++indicates that the IC50 was greater than the highest concentration tested. The note with it: ratio of IC50s, 1 mM ATP. The procedure:
(§1) Compounds herein were tested for inhibitory activity of JAK targets according to the following in vitro assay described in Park et al., Analytical Biochemistry 1999, 269, 94-104. The catalytic domains of human JAK1 (a.a. 837-1142), JAK2 (a.a. 828-1132) and JAK3 (a.a. 781-1124) were expressed using baculovirus in insect cells and purified. The catalytic activity of JAK1, JAK2 or JAK3 was assayed by measuring the phosphorylation of a biotinylated peptide. The phosphorylated peptide was detected by homogenous time resolved fluorescence (HTRF). IC50s of compounds were measured for each kinase in the 40 μL reactions that contain the enzyme, ATP and 500 nM peptide in 50 mM Tris (pH 7.8) buffer with 100 mM NaCl, 5 mM DTT, and 0.1 mg/mL (0.01%) BSA. For the 1 mM IC50 measurements, ATP concentration in the reactions was 1 mM. Reactions were carried out at room temperature for 1 hour and then stopped with 20 μL 45 mM EDTA, 300 nM SA-APC, 6 nM Eu-Py20 in assay buffer (Perkin Elmer, Boston, Mass.). Binding to the Europium labeled antibody took place for 40 minutes and HTRF signal was measured on a PHERA star plate reader (BMG, Cary, N.C.). The Example compounds were each tested in the Example A assay (see Table 1 for data for the compounds of the examples as tested by the assay of Example A at 1 mM ATP).

The target in experiment [2] is human JAK1 (Homo sapiens, UniProt P23458). The experiment is described as above. Details: key to JAK1 IC50 (nM): +indicates an IC50 of ≦100 nM; ++indicates an IC50 of ≦1000 nM; +++indicates an IC50 of ≦2000 nM; ++++indicates an IC50 of >2000 nM; +++++indicates that the IC50 was greater than the highest concentration tested. The conditions noted are these: 1 mM ATP. As for the experimental part: as §1

For a further experiment, the target named is human JAK2 (Homo sapiens (Human), UniProt O60674). In words: In vitro JAK kinase assay (HTRF, phosphorylation of a biotinylated peptide), JAK2. Details: key to JAK2 IC50 (nM): +indicates an IC50 of ≦100 nM; ++indicates an IC50 of ≦1000 nM; +++indicates an IC50 of ≦2000 nM; ++++indicates an IC50 of >2000 nM; +++++indicates that the IC50 was greater than the highest concentration tested. The conditions noted are these: 1 mM ATP. As for the experimental part: as §1
For orientation: TR-FRET usually uses a lanthanide donor and a delayed reading to cut background.

Sequence of human JAK2 (O60674 828-1132): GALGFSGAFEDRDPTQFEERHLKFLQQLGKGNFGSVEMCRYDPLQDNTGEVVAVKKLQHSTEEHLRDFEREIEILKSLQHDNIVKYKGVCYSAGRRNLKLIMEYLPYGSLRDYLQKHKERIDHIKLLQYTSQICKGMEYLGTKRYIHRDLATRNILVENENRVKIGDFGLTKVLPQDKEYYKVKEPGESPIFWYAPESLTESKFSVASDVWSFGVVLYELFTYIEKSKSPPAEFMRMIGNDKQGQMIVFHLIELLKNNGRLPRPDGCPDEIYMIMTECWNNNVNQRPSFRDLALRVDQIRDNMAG

With `Cc1nc2cnc3ccsc3c2n1[C@@H]1CC[C@@H](CC#N)[C@@H](O)C1` (mixture of isomers) [Example 34, Mixture of [(1R,2R,4S)-2-hydroxy-4-(2-methyl-1H-imidazo[4,5-d]thieno[3,2-b]pyridin-1-yl)cyclohexyl]acetonitrile trifluoroacetate and [(1S,2S,4R)-2-hydroxy-4-(2-methyl-1H-imidazo[4,5-d]thieno[3,2-b]pyridin-1-yl)cyclohexyl]acetonitrile trifluoroacetate], the JAK2/JAK1 in the experiment with human JAK1 [1] is listed as >10.
In the case of `CCc1nc2cnc3ccsc3c2n1[C@H]1CC[C@H](CC#N)[C@H](O)C1` (racemic) [Example 35], the 50% inhibitory concentration (IC50) (usually the concentration that inhibits the measured activity by half) at human JAK1 [2] was ≤ 100 nM; at human JAK2, > 2000 nM.
With `C[C@@H](O)c1nc2cnc3ccsc3c2n1C1CCNCC1F` (single isomer, unassigned) [9 (2nd peak)], in the experiment on human JAK1 [1], the JAK2/JAK1 is >10. Besides, on human JAK2, the “JAK2 IC50 (nM)” value is listed as “+++++”.
Consider `C[C@@H](O)c1nc2cnc3ccsc3c2n1C1CCC(O)(CC#N)CC1` (single isomer, unassigned) [24 (first peak)], for which the half-inhibitory concentration (IC50) was ≤ 100 nM on human JAK1 [2] and > 2000 nM against human JAK2. In addition, the JAK2/JAK1 in the experiment with human JAK1 [1] is listed as >10.
Turning to `C[C@@H](O)c1nc2cnc3ccsc3c2n1C1CCC(O)(CC#N)CC1` (single isomer, unassigned) [24 (second peak)], the 50% inhibitory concentration (IC50) against human JAK1 [2] is ≤ 1000 nM.
As to `C[C@@H](O)c1nc2cnc3ccsc3c2n1C1CCC(NCCC#N)CC1` (single isomer, unassigned) [30 (first peak)], the IC50 on human JAK1 [2] was ≤ 1000 nM; against human JAK2, > 2000 nM. Also, the JAK2/JAK1 with human JAK1 [1] was >2.
`C[C@@H](O)c1nc2cnc3ccsc3c2n1C1CCC(NCCC#N)CC1` (single isomer, unassigned) [30 (second peak)]: the IC50 on human JAK1 [2] is ≤ 2000 nM. The JAK2/JAK1 with human JAK1 [1] is >10. Also, on human JAK2, the “JAK2 IC50 (nM)” value was “+++++”.
With `N#CCC1CCC(CO)(n2cnc3cnc4ccsc4c32)CC1` (single isomer, unassigned) [72 (second peak), [4-(Hydroxymethyl)-4-(1H-imidazo[4,5-d]thieno[3,2-b]pyridin-1-yl)cyclohexyl]acetonitrile], the concentration for half-maximal inhibition (IC50) on human JAK1 [2] is ≤ 100 nM; on human JAK2 it was ≤ 1000 nM. In addition, the JAK2/JAK1 in the experiment on human JAK1 [1] is listed as >5.
Consider `C[C@@H](O)c1nc2cnc3ccsc3c2n1C1CCNCC1F` (stereo partly drawn) [9 (1st peak), (1R)-1-[1-(3-Fluoropiperidin-4-yl)-1H-imidazo[4,5-d]thieno[3,2-b]pyridin-2-yl]ethanol], for which the “JAK1 IC50 (nM)” value on human JAK1 [2] is on record as “+++++”. The “JAK2 IC50 (nM)” value at human JAK2 is on record as “+++++”.
In the case of `C[C@@H](O)c1nc2cnc3ccsc3c2n1[C@H]1CCCOC1` [Example 1, (1R)-1-{1-[(3S)-Tetrahydro-2H-pyran-3-yl]-1H-imidazo[4,5-d]thieno[3,2-b]pyridin-2-yl}ethanol], the IC50 at human JAK1 [2] is ≤ 1000 nM. For the same compound, the JAK2/JAK1 with human JAK1 [1] was >3. Moreover, the “JAK2 IC50 (nM)” value at human JAK2 is reported as “+++++”.
Consider `C[C@@H](O)c1nc2cnc3ccsc3c2n1[C@H]1CC[C@H](CC#N)CC1` [Example 2, (trans-4-{2-[(1R)-1-Hydroxyethyl]-1H-imidazo[4,5-d]thieno[3,2-b]pyridin-1-yl}cyclohexyl)acetonitrile], for which the JAK2/JAK1 in the experiment with human JAK1 [1] is on record as >10.
As for `C[C@@H](O)c1nc2cnc3ccsc3c2n1[C@H]1CC[C@H](O)CC1` [Example 3, trans-4-{2-[(1R)-1-Hydroxyethyl]-1H-imidazo[4,5-d]thieno[3,2-b]pyridin-1-yl}cyclohexanol], the IC50 at human JAK1 [2] is ≤ 1000 nM. In the experiment on human JAK1 [1], the JAK2/JAK1 is on record as >10. For the same compound, the “JAK2 IC50 (nM)” value at human JAK2 is “+++++”.
For `C[C@@H](O)c1nc2cnc3ccsc3c2n1[C@H]1CC[C@H](NCC(F)(F)F)CC1` [Example 4, (1R)-1-(1-{trans-4-[(2,2,2-Trifluoroethyl)amino]cyclohexyl}-1H-imidazo[4,5-d]thieno[3,2-b]pyridin-2-yl)ethanol], the values for the 50% inhibitory concentration (IC50) at human JAK1 [2] and at human JAK2 were ≤ 100 nM and ≤ 2000 nM, respectively. Also, in the experiment on human JAK1 [1], the JAK2/JAK1 was >10.
`C[C@@H](O)c1nc2cnc3ccsc3c2n1[C@H]1CC[C@H](CCS(C)(=O)=O)CC1` [Example 5, (1R)-1-(1-{trans-4-[2-(Methylsulfonyl)ethyl]cyclohexyl}-1H-imidazo[4,5-d]thieno[3,2-b]pyridin-2-yl)ethanol]: on human JAK1 [2], the IC50 was ≤ 100 nM. Also, the JAK2/JAK1 in the experiment on human JAK1 [1] is given as >10. Further, on human JAK2, the “JAK2 IC50 (nM)” value was “+++++”.
The like results for `C[C@@H](O)c1nc2cnc3ccsc3c2n1[C@H]1CC[C@@H](n2cncn2)CC1` [Example 6, (1R)-1-{1-[cis-4-(1H-1,2,4-Triazol-1-yl)cyclohexyl]-1H-imidazo[4,5-d]thieno[3,2-b]pyridin-2-yl}ethanol] were, in that order, ≤ 2000 nM, >6 and “+++++”.
Turning to `C[C@@H](O)c1nc2cnc3ccsc3c2n1[C@H]1CC[C@@H](C#N)CC1` [Example 7, cis-4-{2-[(1R)-1-Hydroxyethyl]-1H-imidazo[4,5-d]thieno[3,2-b]pyridin-1-yl}cyclohexanecarbonitrile], the IC50 against human JAK1 [2] is ≤ 100 nM; against human JAK2, ≤ 2000 nM. Moreover, the JAK2/JAK1 in the experiment on human JAK1 [1] was >10.
The like results for `C[C@@H](O)c1nc2cnc3ccsc3c2n1[C@H]1CC[C@H](CCC#N)CC1` [Example 8, 3-(trans-4-{2-[(1R)-1-Hydroxyethyl]-1H-imidazo[4,5-d]thieno[3,2-b]pyridin-1-yl}cyclohexyl)propane nitrile] were, in that order, ≤ 100 nM, ≤ 1000 nM and >10.
The like results for `C[C@@H](O)c1nc2cnc3ccsc3c2n1[C@H]1CC[C@H](CC#N)CC1.Cl` [Example 10, (trans-4-{2-[(1R)-1-Hydroxyethyl]-1H-imidazo[4,5-d]thieno[3,2-b]pyridin-1-yl}cyclohexyl)acetonitrile HCl salt] were, in that order, ≤ 100 nM, ≤ 1000 nM and >10.
Regarding `C[C@@H](O)c1nc2cnc3ccsc3c2n1[C@H]1CC[C@H](CO)CC1` [Example 11, (1R)-1-{1-[trans-4-(Hydroxymethyl)cyclohexyl]-1H-imidazo[4,5-d]thieno[3,2-b]pyridin-2-yl}ethanol], the concentration for half-maximal inhibition (IC50) at human JAK1 [2] was ≤ 100 nM. Besides, the JAK2/JAK1 in the experiment with human JAK1 [1] is >10. Besides, the “JAK2 IC50 (nM)” value at human JAK2 is “+++++”.
In the case of `C[C@@H](O)c1nc2cnc3ccsc3c2n1[C@H]1CC[C@H](CF)CC1` [Example 12, (1R)-1-{1-[trans-4-(Fluoromethyl)cyclohexyl]-1H-imidazo[4,5-d]thieno[3,2-b]pyridin-2-yl}ethanol], the concentration for half-maximal inhibition (IC50) against human JAK1 [2] is ≤ 100 nM; on human JAK2 it was ≤ 2000 nM. Further, in the experiment on human JAK1 [1], the JAK2/JAK1 is on record as >10.
For `C[C@@H](O)c1nc2cnc3ccsc3c2n1C1CCCCC1` [Example 13, (1R)-1-(1-Cyclohexyl-1H-imidazo[4,5-d]thieno[3,2-b]pyridin-2-yl)ethanol], the IC50 on human JAK1 [2] is ≤ 100 nM; at human JAK2 it was > 2000 nM. Also, the JAK2/JAK1 in the experiment with human JAK1 [1] is recorded as >10.
As to `C[C@@H](O)c1nc2cnc3ccsc3c2n1[C@H]1CCCN(C(=O)CCC(F)(F)F)C1` [Example 52, (1R)-1-{1-[(3S)-1-(4,4,4-Trifluorobutanoyl)piperidin-3-yl]-1H-imidazo[4,5-d]thieno[3,2-b]pyridin-2-yl}ethanol], the IC50 against human JAK1 [2] was ≤ 1000 nM. For the same compound, the JAK2/JAK1 with human JAK1 [1] is on record as >10.
Consider `Cc1nn2cnc3ccsc3c2c1[C@H]1CC[C@H](CC#N)CC1` [Example 77, [trans-4-(8-Methylpyrazolo[1,5-c]thieno[2,3-e]pyrimidin-9-yl)cyclohexyl]acetonitrile], for which the IC50 on human JAK1 [2] and against human JAK2 was ≤ 100 nM throughout.
Regarding “[(1R,2S,4S)-4-(2-Ethyl-1H-imidazo[4,5-d]thieno[3,2-b]pyridin-1-yl)-2-hydroxycyclohexyl]acetonitrile and [(1S,2R,4R)-4-(2-ethyl-1H-imidazo[4,5-d]thieno[3,2-b]pyridin-1-yl)-2-hydroxycyclohexyl]acetonitrile [40 (second peak)]”, the IC50 on human JAK1 [2] was > 2000 nM. Besides, at human JAK2, the “JAK2 IC50 (nM)” value is “+++++”.
The like results for “[(1R,2S,4S)-4-(2-Methyl-1H-imidazo[4,5-d]thieno[3,2-b]pyridin-1-yl)-2-hydroxycyclohexyl]acetonitrile and [(1S,2R,4R)-4-(2-methyl-1H-imidazo[4,5-d]thieno[3,2-b]pyridin-1-yl)-2-hydroxycyclohexyl]acetonitrile [41 (second peak)]” were, in that order, > 2000 nM and “+++++”.
